From PubChem BioAssay (NCI) come the findings set out here.

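Five concentrations, 48 hours, 96-well plates. GI50 is the concentration that inhibits growth by half. TGI marks complete inhibition of growth.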

Common to all, as to test: NCI-60 cell line screen, 48 h
Experiment [1] relates to HT29 colon.
For experiment [2], the system named is UACC-257 melanoma.
Experiment [3] has as its system UO-31 renal.
Experiment [4] relates to NCI-H226 lung.
For experiment [5], the system named is M14 melanoma.
Experiment [6] deals with A498 renal.
Experiment [7] concerns MDA-MB-231 breast.
Experiment [8] concerns T-47D breast.
Experiment [9] concerns DU-145 prostate.
Experiment [10] concerns MDA-MB-435.

For `COc1cc(/C=C/C(=N\NC(=O)c2ccccc2)c2sc(Nc3ccc(Cl)c(Cl)c3)nc2C)ccc1O`, the TGI is > 100 µM in experiment [1]; > 100 µM in experiment [2]; 77.7 µM in experiment [3]; 56 µM in experiment [4]; 93.4 µM in experiment [5].

For `CC(O)CN1C(=O)NC(Cc2ccccc2)C1=O` (stereo not drawn), the TGI in experiment [1], in experiment [2], in experiment [3], in experiment [4] and in experiment [5] was > 100 µM each time.

On to `NS(=O)(=O)c1ccc(NC(=O)c2cccc3c(=O)c4ccccc4[nH]c23)cc1`, for which the TGI in [6] is > 100 µM; in experiment [1], > 100 µM; in experiment [2], > 100 µM; in [3], 67.8 µM; in experiment [4], > 100 µM; in experiment [5] it was > 100 µM.

With `COc1cc(/C=C\c2ccc(O)cc2)cc(OC)c1OC`, the TGI is > 100 µM in [6]; > 100 µM in [1]; > 100 µM in experiment [2]; > 36.6 µM in experiment [3]; > 100 µM in [4]; > 100 µM in experiment [5].

Turning to `Cc1ccc(-c2nc(C(Cl)Cl)n3nc(-c4ccccc4)cc3n2)cc1`, the GI50 in [1] is 1.1 µM; in [7] it was 0.21 µM; in experiment [8], 0.505 µM; in experiment [4], > 100 µM; in experiment [5], > 100 µM. The TGI in experiment [1] is > 56.2 µM; in experiment [7], 0.678 µM; in experiment [8] it was 3.53 µM; in experiment [4], > 100 µM; in experiment [5], > 100 µM.

As to `Clc1cc(Cl)c2c(Cl)cc(Cl)c3c2c1N=S=N3`, the TGI in experiment [6], in [1], in experiment [2], in experiment [3], in experiment [4] and in experiment [5] was > 100 µM in each case.

On to `CC1(C)OC(=O)C=C([O-])O1.CC1(C)OC(=O)C=C([O-])O1.O=c1c(O)c(-c2ccc([O-])cc2[O-])oc2cc(O)cc(O)c12.[Ti+4]`, for which the GI50 in experiment [6] is 58.1 µM. In addition, the TGI in [6] is > 100 µM; in experiment [1], > 100 µM; in experiment [2], > 100 µM; in experiment [3], 90.5 µM; in [4] it was > 100 µM; in experiment [5] it was > 100 µM.

In the case of `CC1(C)CCc2cc3c(cc2O1)OCCC3=O`, the TGI in [6], in [1], in [2], in [3], in [4] and in [5] was > 100 µM each time.

As for `Cc1sc(C)c(-c2ccc(CO)o2)c1-c1ccc(CO)o1`, the GI50 in experiment [6] was 0.0205 µM; in [1], 0.498 µM; in experiment [7] it was 51 µM; in [9], > 100 µM; in experiment [3], 28.8 µM; in experiment [4], 0.124 µM. For the same compound, the values for the GI50 in [10] and in experiment [5] were > 100 µM and 70.9 µM, respectively. Also, the TGI in experiment [6] was 0.0973 µM; in experiment [1], > 100 µM; in experiment [7], > 100 µM; in [9] it was > 100 µM; in experiment [3], > 100 µM; in [4], 0.388 µM. The TGI in experiment [10] and in experiment [5] was > 100 µM each time.

As for `C=C1C(=O)O[C@H]2[C@H]1CC/C(COC(=O)c1cc3cc(OC)ccc3[nH]1)=C\CC[C@@]1(C)O[C@@H]21`, the GI50 is 1.63 µM in experiment [6]; 0.351 µM in experiment [1]; 1.58 µM in experiment [7]; 1.03 µM in experiment [9]; 1.61 µM in [2]; 1.12 µM in experiment [3]. In addition, the GI50 in [4] was 1.57 µM; in experiment [10] it was 0.621 µM; in [5], 1.27 µM. Besides, the TGI worked out at 3.04 µM in experiment [6]; 1.47 µM in experiment [1]; 3.2 µM in experiment [7]; 2.19 µM in experiment [9]; 3 µM in experiment [2]; 2.37 µM in experiment [3]. Further, the results for the TGI in [4], in experiment [10] and in experiment [5] were 3.94 µM, 2.03 µM and 2.98 µM, respectively.

For `O=C(Nc1ccc(S(=O)(=O)N[C@@H](C(=O)O)c2ccccc2)cc1)c1ccc(F)cc1`, the TGI in [6], in experiment [1], in experiment [2], in experiment [3] and in [5] was > 100 µM in each case.

`CN(C)C(=S)/N=c1\ss/c(=N\S(=O)(=O)c2ccccc2)n1-c1ccccc1`: the TGI in experiment [6], in experiment [1], in [2], in experiment [3], in experiment [4] and in experiment [5] was > 100 µM throughout.

Regarding `CCOc1cccc2nc3cccc(C(=O)NCCN(C)C)c3nc12`, the TGI in experiment [6] was 2.26 µM; in experiment [1], 7.14 µM; in experiment [2], 6.45 µM; in experiment [3], > 100 µM; in experiment [4], 2.08 µM; in [5], 6.04 µM.

Regarding `COc1ccccc1C(=O)c1ccc2ccccc2c1`, the TGI was 85.7 µM in experiment [1]; > 100 µM in experiment [7]; > 100 µM in experiment [9]; > 100 µM in [2]; 64.7 µM in experiment [3]; > 100 µM in [4]. Also, the TGI was 8.88 µM in [10] and 58.1 µM in [5].

For `N#Cc1c(N)c(C(=O)O)nn(-c2cccc(C(F)(F)F)c2)c1=O`, the TGI in experiment [6], in experiment [1], in experiment [3] and in experiment [5] was > 100 µM each time.

`COc1ccc2c(c1)C=CC(C#N)N2C(=O)c1ccccc1` (stereo not drawn): the GI50 is < 0.01 µM in experiment [6]; < 0.01 µM in experiment [1]; < 0.01 µM in experiment [7]; < 0.01 µM in experiment [9]; 45.2 µM in [2]; < 0.01 µM in [3]. In addition, the GI50 in experiment [4] was 4.16 µM. In addition, the TGI was 0.0825 µM in [6]; > 42.1 µM in experiment [1]; 3.14 µM in experiment [7]; > 100 µM in experiment [9]; > 100 µM in experiment [2]; > 100 µM in [3]. Further, in experiment [4], the TGI is > 100 µM.
